Results on 13 compounds are retold here after patent US6764682B1, “Adjuvant compositions containing more than one adjuvant” (priority 1994, dated 2004).

What all share (format): in vivo
Assay [1] deals with peptide-specific IgG antibodies. As to the kind of experiment: Guinea pig antibody responses to synthetic peptides formulated with different adjuvants (peptide-specific ELISA). As to conditions: mean titer of three guinea pigs, three injections. On the technique in general: ELISA stands for enzyme-linked immunosorbent assay.
The test system of assay [2] is CLTB-36. Kind of assay: Guinea pig antibody response to CLTB-36 in different adjuvants, ELISA titer against CLTB-36. Conditions: guinea pigs (n = 3) immunized with 20 μg CLTB-36 in the named adjuvant; boosters at 2, 4 and 6 weeks.
Assay [3] concerns CLTB-56. As to the kind of experiment: Guinea pig antibody response to CLTB-36 in different adjuvants, ELISA titer against CLTB-56. As to conditions: guinea pigs (n = 3) immunized with 20 μg CLTB-36 in the named adjuvant; boosters at 2, 4 and 6 weeks.
Setting [4] is: adjuvant CFA, 100 μg peptide per dose (CLTB-36 20 μg).
The mark [5] stands for this setting: adjuvant OTH, 100 μg peptide per dose (CLTB-36 20 μg).
Where [6] appears, read: adjuvant alum, 100 μg peptide per dose (CLTB-36 20 μg).
[7] abbreviates: peptide in PBS (no adjuvant), 100 μg peptide per dose (CLTB-36 20 μg).
Where [8] appears, read: adjuvant BAY R1005, 100 μg peptide per dose (CLTB-36 20 μg).
The mark [9] stands for this setting: adjuvant TPC, 100 μg peptide per dose (CLTB-36 20 μg).
[10] abbreviates: Table 3, adjuvant BAY R1005 + alum, 100 μg peptide per dose.

For “PDPGDLVEYIMNYTGNQQSRWGLGSPNCHGPDWASPVCQRHSP [RV-EP27]”, the “Peptide-Specific Antibody Titre” value is 128,000 in assay [1] (setting [4]), 25,600 in assay [1] (setting [5]), 12,800 in assay [1] (setting [6]) and 400 in assay [1] (setting [7]).

In the case of `CC(=O)O.CCCCCCCCCCCCCCCCCCN(C(=O)CCCCCCCCCCC)[C@@H]1O[C@H](CO)[C@@H](O)[C@H](O)[C@H]1NC(=O)[C@@H](N)CC(C)C` [BAY R1005, N-(2-deoxy-2-L-leucylamino-β-D-glucopyranosyl)-N-octadecyldodecanamide acetate], in assay [2], the “Average titers against CLTB-36” value was 62,500. Besides, the “Average titers against CLTB-56” value in assay [3] is listed as 4,333.

Turning to “NQITSALSTQQEFRDLKKYLPSKDKSVVSLQDRAC [HIBP1-5E]”, the “Peptide-Specific Antibody Titre” value was 32,500 in assay [1] (setting [8]); 312,500 in assay [1] (setting [4]); 1,600 in assay [1] (setting [9]); 8,333 in assay [1] (setting [6]); 200 in assay [1] (setting [7]).

On to IKEIDESESEDYAKEGFRAP [PSP-AA], for which the “Peptide-Specific Antibody Titre” value is reported as 12,500 in assay [1] (setting [4]), 1,600 in assay [1] (setting [6]) and 200 in assay [1] (setting [7]).

Turning to PIVNKQSCSISNIETVIEFQQ [RSV-FND2], the “Peptide-Specific Antibody Titre” value in assay [1] (setting [10]) is recorded as 25,600; in assay [1] (Table 3, adjuvant BAY R1005, 100 μg peptide per dose), 10,000; in assay [1] (Table 3, adjuvant alum, 100 μg peptide per dose), 7,800; in assay [1] (setting [8]), 10,000; in assay [1] (setting [4]), 12,800; in assay [1] (setting [5]), 6,400. In addition, the “Peptide-Specific Antibody Titre” value in assay [1] (setting [9]) is 3,200; in assay [1] (setting [6]), 7,800; in assay [1] (setting [7]), 400.

As for “GPKEPFRDYVDRFYKNRKRIHIGPGRAFYTTKN [CLTB-36]”, the “Peptide-Specific Antibody Titre” value in assay [1] (setting [8]) is reported as 72,800; in assay [1] (setting [4]), 256,000; in assay [1] (setting [5]), 6,400; in assay [1] (setting [9]), 3,200; in assay [1] (setting [6]) it was 10,000; in assay [1] (setting [7]), 400.

Consider “GPKEPFRDYVDRFYKNTRQSTPIGLGQALYTTRG [CLTB-76]”, for which the “Peptide-Specific Antibody Titre” value in assay [1] (setting [8]) is on record as 45,833; in assay [1] (setting [4]), 625,000; in assay [1] (setting [5]), 6,400; in assay [1] (setting [9]), 3,200; in assay [1] (setting [6]), 9,166; in assay [1] (setting [7]) it was 1,833.

PQPGPQPPQPPQPQPEAPAPQPPC [69K-P1]: the “Peptide-Specific Antibody Titre” value in assay [1] (setting [8]) is listed as 32,500; in assay [1] (setting [4]), 10,000; in assay [1] (setting [9]) it was 1,600; in assay [1] (setting [6]) it was 32,500; in assay [1] (setting [7]), 800.

As to CSNNPTCWAICKRIPNKKPGKKT [RSV-G2], the “Peptide-Specific Antibody Titre” value in assay [1] (setting [8]) is given as 3,200; in assay [1] (setting [4]) it was 128,000; in assay [1] (setting [9]), 1,600; in assay [1] (setting [6]), 31,500; in assay [1] (setting [7]), 1,280.

In the case of TVGKKTYQVEACCSNLSYVKFGM [TBP2-3], the “Peptide-Specific Antibody Titre” value is 32,500 in assay [1] (setting [8]), 12,500 in assay [1] (setting [4]), 43,333 in assay [1] (setting [6]) and 400 in assay [1] (setting [7]).

In the case of “GPKEPFRDYVDRFYKNTRKRIRIQRGGRAFVTIGK [CLTB-72]”, the “Peptide-Specific Antibody Titre” value in assay [1] (setting [8]) is given as 45,800; in assay [1] (setting [4]), 312,500; in assay [1] (setting [5]), 6,400; in assay [1] (setting [9]), 3,200; in assay [1] (setting [6]) it was 37,500; in assay [1] (setting [7]) it was 2,333.

For the compound TKQRQNKPPSKPNNDFHFEVFNFVPC [RSV-G1], the “Peptide-Specific Antibody Titre” value is recorded as 31,500 in assay [1] (setting [8]); 315,000 in assay [1] (setting [4]); 6,400 in assay [1] (setting [9]); 128,000 in assay [1] (setting [6]); 1,600 in assay [1] (setting [7]).

As for QSYSIMSIIKEEVLAYAVQLPLPLYGVIDTP [RSV-F], the “Peptide-Specific Antibody Titre” value is 128,000 in assay [1] (setting [10]); 3,850 in assay [1] (setting [8]); 6,400 in assay [1] (setting [4]); 3,200 in assay [1] (setting [5]); 1,600 in assay [1] (setting [9]); 32,000 in assay [1] (setting [6]). Further, the “Peptide-Specific Antibody Titre” value in assay [1] (setting [7]) is on record as 500.
